Experiments:
[1] = test system: H-2D^d, H-2K^d or H-2L^d complexes; assay: T2 peptide binding assay, respective MHC class I complexes; settings: Figure 3A; TAP-deficient T2 cells, 100 µM to 0.1 µM peptide, 14 h at 37°C, FACS
Experimental: Figure 3 Contributing mechanisms of immunodominance. […] T2 cell lines were incubated with decreasing peptide concentrations ranging from 100 µM to 0.1 µM indicated above the H peptide histogram and the cell surface peptide-loaded MHC complexes were detected by fluorochrome-conjugated mAb (DB Biosciences) and quantified using FACS flow cytometer. B) and C) Groups of 3 BALB/c mice were given 3x immunizations using 100 µg of DNA expressing the index or mutated forms of HIVA at 3 wk intervals and their T cell responses were analyzed 4 wk later. B) Splenocytes were assessed in an ICS assay using peptides indicated above the graphs at concentrations ranging from 10 to 10^−8 µM for 5 h. Cells were gated on IFN-γ-producing CD8^+ T cell populations positive (top) or negative (bottom) for CD107a/b. Note the different y-axis scales on the top and bottom graphs. C) The response kinetics of CD8^+ T cells re-stimulated with 0.1 µM peptides was assessed in an ICS assay in 1-h intervals for a period of 4 h. Data shown are as mean±SD of [CD8^+CD107a/b^+IFN-γ^+ cells at each time point (%)] ÷ [CD8^+CD107a/b^+IFN-γ^+ at 4 h (%)]. One out of two independent experiments is shown.
(§1) TAP2 ([…])-deficient T2 cell lines stably expressing D^d, K^d, and L^d molecules kindly provided by Dr. Ted Hansen (Washington university, U.S.A.) were used to assess the ability of MHCs to bind each peptide. In brief, 1×10^5 cells were incubated with 0/0.1/1.0/10/100 µM peptides in no-serum RPMI (R-0) for 14 h at 37°C, 5% CO2 in a flat-bottomed 96-well plate. 14 h later, cells were transferred to a round-bottomed 96-well plate and washed with PBS before staining the cells with anti-H-2K^d/H-2D^d-PE or anti-H-2L^d-PE (eBioscience) monoclonal antibodies. Cells were then analyzed on a FACS flow cytometer.

[2] = test system: CD8^+ T cells; assay: Immunodominance hierarchy of T cell responses to HIVA-derived epitopes; type: cell-based, BALB/c mice; settings: 10 d after immunization
[3] = test system: CD8^+ splenocytes of DNA-immunized mice; assay: ICS T cell avidity (peptide titration, CD107a/b and IFN-γ); type: cell-based, BALB/c mice; settings: for peak IFN-γ^+CD107a/b^+CD8^+ cell frequencies at 10 µM peptide: Figure 3B, individual determinants when dominant: H in group HIVA, P in HIVAdH, G1 in dHmP, NPP in dHmPG1, 3x 100 µg DNA, 5 h
Experimental: T2 cell lines were incubated with decreasing peptide concentrations ranging from 100 µM to 0.1 µM indicated above the H peptide histogram and the cell surface peptide-loaded MHC complexes were detected by fluorochrome-conjugated mAb (DB Biosciences) and quantified using FACS flow cytometer. B) and C) Groups of 3 BALB/c mice were given 3x immunizations using 100 µg of DNA expressing the index or mutated forms of HIVA at 3 wk intervals and their T cell responses were analyzed 4 wk later. B) Splenocytes were assessed in an ICS assay using peptides indicated above the graphs at concentrations ranging from 10 to 10^−8 µM for 5 h. Cells were gated on IFN-γ-producing CD8^+ T cell populations positive (top) or negative (bottom) for CD107a/b. Note the different y-axis scales on the top and bottom graphs. C) The response kinetics of CD8^+ T cells re-stimulated with 0.1 µM peptides was assessed in an ICS assay in 1-h intervals for a period of 4 h. Data shown are as mean±SD of [CD8^+CD107a/b^+IFN-γ^+ cells at each time point (%)] ÷ [CD8^+CD107a/b^+IFN-γ^+ at 4 h (%)]. One out of two independent experiments is shown.
We also measured avidities of T cell responses recovered through the sequential HIVA epitope up-ranking. First, responsiveness of immune splenocytes following 3 plasmid DNA deliveries was measured in an ICS assay upon re-stimulation with peptide concentrations ranging from 10^−8 to 10 µM for 5 h (Figure 3A).

[4] = test system: syngeneic peptide-pulsed cells; assay: In vivo lysis assay, epitope hierarchy with boost vector and time; set-up: species or system BALB/c mice; settings: for epitope hierarchy at 100 d: Figure 5, DNA-DNA (pTH.HIVA) regimen, 100 d after last vaccination
[5] = test system: H-2D^d and H-2L^d molecules; settings: ref [31], [33]; cited from earlier work
Description: (§2) Our research interests lie in development of the T cell component of HIV-1 vaccines stimulating protective CD8^+ T cell responses. The first-generation T cell immunogen, designated HIVA (Figure 1A), has served as an extremely useful tool for iterative improving of CD8^+ T cell induction by experimental vaccines in mice, non-human primates and humans [reviewed in [30]]. To increase the power of T cell analysis and study the role of subdominant determinants, H-2^d class I-restricted epitopes contained in the HIVA immunogen were mapped in detail. Thus, the most immunodominant epitope of ...

[6] = test system: splenocytes of DNA-immunized mice; assay: IFN-γ ELISPOT and ICS with modified HIVA immunogens; type: cell-based, BALB/c mice; settings: for recognition of altered peptides by splenocytes (IFN-γ): Figure 2A and B, mice immunized with dHmP and dHmPG1, respectively
Description: To further investigate this phenomenon, we serially inactivated CD8^+ T cell epitopes in the order of their immunodominance. To maintain the HIVA protein integrity, epitopes P and G1 were mutated rather than deleted by substituting the anchor amino acid residues required for a strong binding to the H-2K^d molecule (Figure 2A). The resulting double and triple mutants of the HIVA immunogen were called dHmP and dHmPG1, respectively. […] Groups of BALB/c mice were immunized 2x using the modified HIVA immunogens vectored by plasmid DNA and the immune responses were measured in IFN-γ ELISPOT, ICS and in vivo killing assays. […] Second, consistently in all three assays, immune responses directed against subdominant epitopes were serially recovered, however, not to the same extent. […] Because the response to the G2 epitope remained undetectable even in the dHmPG1-immunized mice, overlapping 15/11 peptides across the whole HIVA immunogen were used again to search for another yet unidentified epitope of a higher rank. […] (Figure 2D). […] Thus, step-wise deletion of immunodominant CD8^+ T cell epitopes restores responses to the subdominant epitopes in the hierarchy.
Figure 2 Serial up-ranking of epitopes. A) Groups of 4 BALB/c mice were immunized 2x i.m. with 100 µg of DNA at a 2-wk interval. Two wk later, splenocytes were assessed in an ELISPOT assay for production of IFN-γ upon re-stimulation with peptides indicated above. Shown are schematic diagrams of HIVA and the three modified immunogens with representative examples of the ELISPOT well images. B) Mice were immunized as in A and 4 wk later, splenocytes were assessed in an ICS assay to measure CD8^+ T cells secreting IFN-γ upon re-stimulation with peptide indicated in the top left corner. Group means±SD are shown. C) Identical groups of mice were assessed for cytolytic activity in an in vivo lysis of syngeneic peptide-pulsed cells transferred into naïve or vaccinated animals. Representative examples of dot plots are shown (top) and the peptide-specific lyses are expressed as a group mean±SD (bottom). D) Groups of 3 BALB/c mice were immunized 3x with 100 µg of DNA indicated above the dot plot in 2-wk intervals and the designated NPP peptide-specific responses were assessed by IFN-γ ICS 2 wk later. The FACS plots are representative examples with IFN-γ producing cells as a percentage of CD8^+ splenocytes shown in the top right panels. All experiments were repeated at least once. TEXT PRINTED IN THE PICTURE: (D) HIVA: 0.05 | (D) HIVAdH: 0.09 | (D) dHmP: 0.08 | (D) dHmPG1: 0.57 DOUBTS OF THE COPYIST ABOUT THIS PICTURE: Panel D: the numbers in the top right quadrants of the CD8 / IFN-γ dot plots are printed without a measure or unit, so they are copied as bare numbers.
The ELISPOT assay was performed using the Mouse IFN-γ ELISpot kit (Mabtech) according to the manufacturer's instructions. Spots were visualised using sequential applications of a biotin-conjugated secondary anti-IFN-γ mAb (R4-6A2, Rat IgG1), an alkaline phosphatase and a chromogenic substrate (Bio-Rad) and counted using the AID ELISpot Reader System (Autoimmun Diagnostika).

[7] = test system: CD8^+ splenocytes of immunized mice; type: cell-based, BALB/c mice; settings: HIVAdH vs HIVA immunization; ex vivo ICS, Figure 1D
[8] = target: T1, H-2K^d (Mus musculus, UniProt P01902); settings: ref [34]; cited from earlier work
T1 sequence (P01902 whole entry, looked up): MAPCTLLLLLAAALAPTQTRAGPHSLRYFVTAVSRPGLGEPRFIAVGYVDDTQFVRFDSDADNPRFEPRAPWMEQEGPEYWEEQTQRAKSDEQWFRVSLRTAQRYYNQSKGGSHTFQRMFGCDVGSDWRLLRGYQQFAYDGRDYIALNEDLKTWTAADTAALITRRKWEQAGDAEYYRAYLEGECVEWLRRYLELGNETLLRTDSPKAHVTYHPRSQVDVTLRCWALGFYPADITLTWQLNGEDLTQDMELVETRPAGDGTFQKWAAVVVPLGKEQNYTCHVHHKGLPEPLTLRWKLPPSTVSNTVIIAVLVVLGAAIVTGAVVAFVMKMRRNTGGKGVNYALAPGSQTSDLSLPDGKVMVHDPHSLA
Description: as §2

[9] = target: H-2D^d (Mus musculus, UniProt P01900); assay: T2 peptide binding assay, H-2D^d; settings: Figure S2B, 100 µM to 0.01 µM peptide
Sequence of H-2D^d (P01900 whole entry, looked up): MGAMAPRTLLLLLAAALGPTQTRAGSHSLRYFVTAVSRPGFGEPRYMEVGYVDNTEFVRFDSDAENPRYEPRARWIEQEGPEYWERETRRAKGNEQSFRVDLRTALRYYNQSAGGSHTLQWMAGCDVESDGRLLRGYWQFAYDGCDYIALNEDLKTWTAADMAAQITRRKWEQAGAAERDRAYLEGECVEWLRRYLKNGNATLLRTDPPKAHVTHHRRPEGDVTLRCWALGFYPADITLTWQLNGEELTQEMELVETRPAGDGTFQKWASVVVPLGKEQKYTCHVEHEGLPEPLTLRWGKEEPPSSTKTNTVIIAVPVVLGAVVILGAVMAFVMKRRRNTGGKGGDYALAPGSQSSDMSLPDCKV
Experimental: as §1
(§3) Supplementary file ppat.1002041.s002.pdf: Figure S2 T2 assays for peptide binding affinity for MHC class I. TAPdeficient T2 cell lines stably transformed with H-2Dd, H-2Kd or H-2Ld complexes were kindly provided by Dr Hansen, Washington University. Peptide-loaded MHC complexes were detected by fluorochrome-conjugated mAb (DB Biosciences) and the cells were analyzed using flow cytometer. […]
(§4) Supplementary Figure S2. […] Peptide-loaded MHC complexes were detected by fluorochrome-conjugated mAb (DB Biosciences) and the cells were analyzed using flow cytometer. […]

[10] = target: H-2L^d (Mus musculus, UniProt P01897); assay: T2 peptide binding assay, H-2L^d; settings: Figure S2B, 100 µM to 0.01 µM peptide
Sequence of H-2L^d (P01897 whole entry, looked up): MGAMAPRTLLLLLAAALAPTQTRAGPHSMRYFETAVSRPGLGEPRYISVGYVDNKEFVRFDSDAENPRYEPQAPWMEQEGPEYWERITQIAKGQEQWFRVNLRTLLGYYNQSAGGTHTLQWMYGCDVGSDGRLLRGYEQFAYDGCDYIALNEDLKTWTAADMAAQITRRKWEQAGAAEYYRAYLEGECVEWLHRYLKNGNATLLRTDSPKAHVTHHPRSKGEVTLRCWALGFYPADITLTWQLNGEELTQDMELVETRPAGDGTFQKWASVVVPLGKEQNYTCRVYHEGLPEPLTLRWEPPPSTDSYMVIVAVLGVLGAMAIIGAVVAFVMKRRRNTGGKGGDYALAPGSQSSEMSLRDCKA
Experimental: as §1, §3, §4

[11] = target: T1, H-2K^d; assay: T2 peptide binding assay, H-2K^d; settings: Figure S2A, 100 µM to 0.01 µM peptide
Experimental: as §1, §3, §4

[12] = test system: syngeneic peptide-pulsed cells; assay: in vivo killing assay (lysis of syngeneic peptide-pulsed cells); set-up: species or system BALB/c mice; settings: HIVAdH vaccinated relative to HIVA vaccination; Figure 1F

In the case of RGPGRAFVTI [H], the “peptide binding affinities for respective MHC class I” value (“peptide binding affinities” for short) [1] is reported as “directly correlated with the immunodominance hierarchy”, the “hierarchy of T cell responses against HIVA-derived epitopes” value (“hierarchy of T cell responses” for short) [2] is reported as “H>P>>G1>NPP>>G2” and the “IFN-γ response in non-degranulating IFN-γ^+CD107a/b^−CD8^+ cells” value ([3]; Figure 3B bottom, following HIVA vaccination, low, but significant) is reported as 0.65 % of total CD8^+ cells. For the same sequence, the “peak IFN-γ^+CD107a/b^+CD8^+ cell frequencies at 10 µM peptide” value [3] was 3.2 % of total CD8^+ splenocytes, the “epitope hierarchy at 100 d” value [4] was “no longer dominated the anti-HIVA response” and the “epitope hierarchy at 28 d” value ([4]; double or triple DNA prime-boost regimen, 28 d post vaccination) was “the strongest at 28 d post vaccination”. For the same sequence, the “MHC class I restriction (H-2D^d and H-2L^d)” value [5] was “restricted by H-2D^d and H-2L^d molecules”.
With NPPIPVGDIYKRWIILGLNK the “T cell response to peptide in epitope search” value ([6]; dHmPG1-immunized mice, overlapping 15/11 peptides across HIVA) was “a response was detected”.
For TTSTLQEQI [G2, Gag residues 239–247], the “frequencies of IFN-γ-producing CD8^+ cells” value [7] was “undetectable”, the “peptide binding affinities” value [1] was “directly correlated with the immunodominance hierarchy” and the “hierarchy of T cell responses” value [2] was “H>P>>G1>NPP>>G2”. For the same sequence, the “restoration of G2-specific response” value ([6]; immunization with dHmPG1 vaccine) was “failed to restore the G2-specific response” and the “MHC class I restriction (H-2K^d)” value [8] was “H-2K^d-restricted”.
With NPPIPVGDI the “restriction / binding to H-2D^d” value [9] was “restricted by H-2D^d and H-2L^d”, the “restriction / binding to H-2L^d” value [10] was “restricted by H-2D^d and H-2L^d” and the “hierarchy of T cell responses” value [2] was “H>P>>G1>NPP>>G2”. For the same sequence, the “peak IFN-γ^+CD107a/b^+CD8^+ cell frequencies at 10 µM peptide” value [3] was 0.8 % of total CD8^+ splenocytes.
With AMEFLKDTA [altered G1 peptide] the “binding to H-2K^d” value [11] was “unable to bind” and the “recognition of altered peptides by splenocytes (IFN-γ)” value [6] was “unable to recognize”.
With IFQSSMTKI [P] the “frequencies of IFN-γ-producing CD8^+ cells” value [7] was “noticeably, though not significantly increased”, the “in vivo lysis of peptide-pulsed targets” value [12] was “increased in vivo lysis” and the “peptide binding affinities” value [1] was “directly correlated with the immunodominance hierarchy”. For the same sequence, the “hierarchy of T cell responses” value [2] was “H>P>>G1>NPP>>G2”, the “peak IFN-γ^+CD107a/b^+CD8^+ cell frequencies at 10 µM peptide” value [3] was 3.3 % of total CD8^+ splenocytes and the “epitope hierarchy at 100 d” value [4] was “replaced by T cells specific for peptide P”.
With IFGSSMTKA [altered P peptide] the “binding to H-2K^d” value [11] was “unable to bind” and the “recognition of altered peptides by splenocytes (IFN-γ)” value [6] was “unable to recognize”.

Reference: article PMC3098219, “Protective Efficacy of Serially Up-Ranked Subdominant CD8^+ T Cell Epitopes against Virus Challenges” (PLoS Pathogens, 2011)
